Source: patent US20240270821A1, “GIP/GLP1/GCG TRI-RECEPTOR AGONISTS AND USES THEREOF” (priority 2023, published 2024)
Residue numbers refer to the chain shown, from its start. Starred links: 1 amine or outer side, 2 acyl side, 3 side chain; linkers in the order of their positions; H or OH if unused. Non-standard residues stand in square brackets, D forms with d. Groups on a side chain read outwards from the residue. No end group written: not given here. *: point of attachment. C20 diacid = O=C(O)CCCCCCCCCCCCCCCCCCC(=O)*; C18 diacid = O=C(O)CCCCCCCCCCCCCCCCC(=O)*; αMePhe(2-F) = C[C@](N)(Cc1ccccc1F)C(=O)O; γGlu = O=C(O)[C@H](CCC(=O)[*:2])N[*:1]; NMeY = CN[C@@H](Cc1ccc(O)cc1)C(=O)O; αMe4Pal = C[C@](N)(Cc1ccncc1)C(=O)O; αMeF = C[C@](N)(Cc1ccccc1)C(=O)O; 4Pal = N[C@@H](Cc1ccncc1)C(=O)O; αMeL = CC(C)C[C@](C)(N)C(=O)O; Orn = NCCC[C@H](N)C(=O)O; Dab = NCC[C@H](N)C(=O)O; AEEA = NCCOCCOCC(=O)O; Aib = CC(C)(N)C(=O)O

B1: Example 290 (peptide)
chain: HXQGTXTSDYSILLDKKAAXAFIEYLIETGPSSGEPPPSEG
modifications: synthetic construct; SITE 2: note = 2-Aminoisobutyric Acid; SITE 6: note = alpha-methyl-2-fluoro-L-phenylalanine; SITE 17: note = Lysine is chemically modified through conjugation of the epsilon-amino group of the Lysine side chain with (2-[2-(2-Amino-ethoxy)-ethoxy]-acetyl)-(gamma-Glu)-CO-(CH2) 18-
B2: Example 294 (peptide)
chain: B1 chain with H1Y, X6F, L13X, I27L, T29G
modifications: synthetic construct; SITE 2: note = 2-Aminoisobutyric Acid; SITE 13: note = alpha-methyl-leucine; SITE 17: note = Lysine is chemically modified through conjugation of the epsilon-amino group of the Lysine side chain with (2-[2-(2-Amino-ethoxy)-ethoxy]-acetyl)2-(gamma-Glu)-CO-(CH2 )18-CO2H; SITE 20:
B3: Example 298 (peptide)
chain: B1 chain with T29A
modifications: synthetic construct; SITE 2: note = 2-Aminoisobutyric Acid; SITE 6: note = alpha-methyl-2-fluoro-L-phenylalanine; SITE 17: note = Lysine is chemically modified through conjugation of the epsilon-amino group of the Lysine side chain with (2-[2-(2-Amino-ethoxy)-ethoxy]-acetyl)-(gamma-Glu)-CO-(CH2) 18-

How the values were obtained:
[1] = molecular target: T1, hGIPR (Homo sapiens, UniProt P48546); assay: Functional cAMP activity in the presence of 1% HSA; type: cell-based; settings: read-out: cAMP Rel EC50, hGIPR
T1 sequence (P48546 22-466): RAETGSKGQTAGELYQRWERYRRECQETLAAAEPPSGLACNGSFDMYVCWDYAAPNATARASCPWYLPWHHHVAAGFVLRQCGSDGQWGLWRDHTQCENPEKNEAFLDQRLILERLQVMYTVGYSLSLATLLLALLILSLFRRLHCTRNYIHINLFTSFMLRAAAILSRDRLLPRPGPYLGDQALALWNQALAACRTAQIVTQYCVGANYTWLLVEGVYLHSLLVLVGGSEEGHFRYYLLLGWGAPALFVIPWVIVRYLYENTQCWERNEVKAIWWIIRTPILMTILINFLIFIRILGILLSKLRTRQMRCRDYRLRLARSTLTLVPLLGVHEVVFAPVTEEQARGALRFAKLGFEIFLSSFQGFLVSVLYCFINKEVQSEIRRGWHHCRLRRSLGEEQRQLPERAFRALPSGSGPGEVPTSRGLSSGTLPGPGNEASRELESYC

[2] = molecular target: T2, hGLP-1R (Homo sapiens, UniProt P43220); assay: Functional cAMP activity in the presence of 1% HSA; type: cell-based; settings: read-out: cAMP Rel EC50, hGLP-1R
[3] = molecular target: human GcgR (Homo sapiens, UniProt P47871); assay: Functional cAMP activity in the presence of 1% HSA; type: cell-based; settings: read-out: cAMP Rel EC50, hGcgR
[4] = molecular target: T1, hGIPR; assay: Functional cAMP activation in the presence of 0.1% casein (no HSA); type: cell-based; settings: in the presence of 0.1% casein (no HSA); geometric mean; read-out: Relative cAMP EC50, hGIPR;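 for Relative cAMP EC50, hGIPR: intracellular cAMP rise after 30 min at 37 °C read by HTRF against a standard curve, scaled between buffer alone (0%) and top control ligand concentration (100%), four-parameter fit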;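 for Relative cAMP EC50, hGLP-1R: intracellular cAMP rise after 30 min at 37 °C read by HTRF, normalized between buffer only (0%) and maximal control ligand (100%), four-parameter variable-slope fit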;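 for Relative cAMP EC50, hGcgR: intracellular cAMP rise after 30 min at 37 °C, read by HTRF against a cAMP standard curve, scaled from buffer only (0%) to maximal control ligand response (100%)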
[5] = molecular target: T2, hGLP-1R; assay: as above; type: cell-based; settings: in the presence of 0.1% casein (no HSA); geometric mean; read-out: Relative cAMP EC50, hGLP-1R
[6] = molecular target: hGcgR (Homo sapiens, UniProt P47871); assay: as above; type: cell-based; settings: in the presence of 0.1% casein (no HSA); geometric mean; read-out: Relative cAMP EC50, hGcgR;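 note: intracellular cAMP rise after 30 min at 37 °C, read by HTRF against a cAMP standard curve, scaled from buffer only (0%) to maximal control ligand response (100%)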
[7] = molecular target: human GLP1-R (Homo sapiens, UniProt P43220); assay: GLP1-R internalization assay in HEK293 cells; type: cell-based; settings: for EC50: HEK293 cells expressing SNAP-GLP-1R, read-out: GLP1R Internalization EC50; for Internalization % TOP: normalized to maximum concentration of GLP-1 (100%)
[8] = system: Intestinal organoid from Göttingen minipig jejunum tissue, 2D monolayer; assay: Cell based in vitro permeability (Papp) assay; type: in vitro ADME
Procedure, shortened: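 Papp calculated from LC/MS peptide levels in apical and basal compartments. Basal sampling at 20 min with C10 present, across monolayers grown from dissociated minipig jejunal organoids in transwells.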

[9] = molecular target: Pro-Link-tagged Human GLP-1R (human) (UniProt P43220); assay: cell-based or functional assay
[10] = molecular target: T2, hGLP-1R; assay: cell-based or functional assay
[11] = molecular target: T3, human GIP receptor (human) (UniProt P48546); assay: cell-based or functional assay
T3 sequence (looked up): T1 sequence (P48546 22-466)

[12] = molecular target: human glucagon receptor (human) (UniProt P47871); assay: cell-based or functional assay
Sequence of human glucagon receptor (human) (P47871 26-477): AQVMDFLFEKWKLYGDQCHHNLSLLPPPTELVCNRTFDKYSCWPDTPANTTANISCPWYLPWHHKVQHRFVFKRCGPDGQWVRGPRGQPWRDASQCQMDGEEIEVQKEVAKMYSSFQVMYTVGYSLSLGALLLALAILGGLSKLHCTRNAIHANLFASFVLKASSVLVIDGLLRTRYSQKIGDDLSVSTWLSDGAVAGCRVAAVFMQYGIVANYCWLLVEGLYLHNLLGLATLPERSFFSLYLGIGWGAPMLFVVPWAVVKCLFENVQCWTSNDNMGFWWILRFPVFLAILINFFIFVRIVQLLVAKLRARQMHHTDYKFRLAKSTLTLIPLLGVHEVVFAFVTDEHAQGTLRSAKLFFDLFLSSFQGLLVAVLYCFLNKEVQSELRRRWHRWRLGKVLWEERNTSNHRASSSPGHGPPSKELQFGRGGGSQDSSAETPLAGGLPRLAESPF

Sequence of hGcgR (P47871 26-477): as above
Sequence of human GcgR (P47871 26-477): as above
Sequence of human GLP1-R (P43220 24-463): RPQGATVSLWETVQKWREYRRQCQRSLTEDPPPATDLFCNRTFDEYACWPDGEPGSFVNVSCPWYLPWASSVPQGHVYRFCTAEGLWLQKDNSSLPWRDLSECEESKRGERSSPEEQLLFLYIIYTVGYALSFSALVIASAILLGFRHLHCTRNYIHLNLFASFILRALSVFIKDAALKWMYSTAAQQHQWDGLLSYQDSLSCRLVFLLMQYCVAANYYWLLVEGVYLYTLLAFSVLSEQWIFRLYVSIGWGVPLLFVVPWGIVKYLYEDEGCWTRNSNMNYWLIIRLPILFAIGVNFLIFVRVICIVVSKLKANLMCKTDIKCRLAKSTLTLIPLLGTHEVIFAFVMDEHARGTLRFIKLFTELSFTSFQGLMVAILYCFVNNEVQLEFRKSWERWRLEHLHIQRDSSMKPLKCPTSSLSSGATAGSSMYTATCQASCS
Sequence of Pro-Link-tagged Human GLP-1R (human) (P43220 24-463): as above
T2 sequence (P43220 24-463): as above

Row | Molecule | EC50 [1] [nM] | EC50 [2] [nM] | EC50 [3] [nM] | EC50 [4] [nM] | EC50 [5] [nM] | EC50 [6] [nM] | EC50 [7] [nM] | Internalization % TOP [7] [%] | Relative Papp (Compared to internal standard) [8] | % Stimulation Max [9] [%] | hGLP1R β-arrestin Rel EC50 [9] [nM] | Relative cAMP EC50 [10] [nM] | cAMP Rel EC50 (in the presence of 1% HSA) [10] [nM] | Relative cAMP EC50 [11] [nM] | cAMP Rel EC50 (in the presence of 1% HSA) [11] [nM] | Relative cAMP EC50 [12] [nM] | cAMP Rel EC50 (in the presence of 1% HSA) [12] [nM] | cAMP Rel EC50 (1% HSA) [10] [nM] | cAMP Rel EC50 (1% HSA) [11] [nM] | cAMP Rel EC50 (1% HSA) [12] [nM]
1 | H-Y[Aib]QGTFTSDFS[Orn][αMeL]LDKK([γGlu-AEEA-γGlu-C18 diacid])AQ[Aib]AFIEYLLE[Aib]GPSSGAPPPSGS-NH2 [Example 193] | 12.7 | 473 | 1120 | 0.0609 | 5.19 | 4.51 | 132 | 50.7 | 0.17 |  |  |  |  |  |  |  |  |  |  | 
2 | H-Y[Aib]QGTFTSDYSR[αMeL]LDKK([AEEA-γGlu-C18 diacid])AQ[Aib]AFIEYLLEGGESSGAPPPSGS-NH2 [Example 361] | 46.3 | 376 | 987 | 0.214 | 2.08 | 2.73 | 50.4 | 73 | 0.10 |  |  |  |  |  |  |  |  |  |  | 
3 | H-Y[Aib]QGTFTSD[4Pal]SQ[αMeL]LDKK([AEEA-γGlu-C18 diacid])AQ[αMe4Pal]AFIEYLIE[Aib]GESSGAPPPSGE-NH2 [Example 227] | 39.7 | 418 | 937 | 0.17 | 2.34 | 4.22 | 114 | 59.4 | 0.42 |  |  |  |  |  |  |  |  |  |  | 
4 | H-Y[Aib]QGTFTSD[4Pal]SQ[αMeL]LDKK([AEEA-γGlu-C18 diacid])AQ[αMe4Pal]AFIEYLIE[Aib]GESSGAPPPSGS-NH2 [Example 226] | 32.2 | 354 | 763 | 0.127 | 1.97 | 3.08 | 29.1 | 59.3 | 0.36 |  |  |  |  |  |  |  |  |  |  | 
5 | H-Y[Aib]QGTFTSD[4Pal]SR[αMeL]LDKK([AEEA-γGlu-C18 diacid])AQ[Aib]AFIEYLIE[Aib]GESSGAPPPSGS-NH2 [Example 187] | 15.6 | 178 | 2970 | 0.111 | 1.11 | 14.8 | 17.2 | 57 | 0.48 |  |  |  |  |  |  |  |  |  |  | 
6 | H-Y[Aib]QGTFTSD[4Pal]SR[αMeL]LDKK([AEEA-γGlu-C18 diacid])AQ[αMe4Pal]AFIEYLIE[Aib]GESSGAPPPSGE-NH2 [Example 225] | 40.2 | 438 | 561 | 0.213 | 2.44 | 2.36 | 26 | 56.7 | 0.48 |  |  |  |  |  |  |  |  |  |  | 
7 | H-Y[Aib]QGTFTSD[4Pal]SR[αMeL]LDKK([AEEA-γGlu-C18 diacid])AQ[αMe4Pal]AFIEYLIE[Aib]GESSGAPPPSGS-NH2 [Example 224] | 21.5 | 333 | 452 | 0.114 | 1.89 | 1.91 | 32.2 | 61.9 | 0.35 |  |  |  |  |  |  |  |  |  |  | 
8 | H-Y[Aib]QGTFTSD[4Pal]S[Dab][αMeL]LDKK([AEEA-γGlu-C18 diacid])AQ[Aib]AFIEYLIE[Aib]GESSGAPPPSGS-NH2 [Example 188] | 43.8 | 436 | 2920 | 0.193 | 3.43 | 10.8 | 44.7 | 40.2 | 0.46 |  |  |  |  |  |  |  |  |  |  | 
9 | H-Y[Aib]QGTFTSD[4Pal]S[Orn][αMeL]LDKK([AEEA-γGlu-C18 diacid])AQ[Aib]AFIEYLLAGGPSSGEPPPSGS-NH2 [Example 154] | 29.7 | 569 | 1040 | 0.227 | 4.94 | 8.72 | 47.7 | 65.9 | 0.12 |  |  |  |  |  |  |  |  |  |  | 
10 | H-Y[Aib]QGTFTSD[4Pal]S[Orn][αMeL]LDKK([AEEA-γGlu-C18 diacid])AQ[αMe4Pal]AFIEYLIE[Aib]GESSGAPPPSGS-NH2 [Example 223] | 37.2 | 627 | 373 | 0.215 | 2.83 | 1.57 | 45.8 | 59.3 | 0.29 |  |  |  |  |  |  |  |  |  |  | 
11 | Tirzepatide (peptide) |  |  |  |  |  |  |  |  |  | 10.5 |  |  |  |  |  |  |  |  |  | 
12 | Y[Aib]QGTFTSDFS[Orn][αMeL]LDKK([AEEA-AEEA-γGlu-C18 diacid])AQ[Aib]AFIEYLLE[dA]GPSSGEPPPSGS-NH2 [Example 155] | 18.9 | 503 | 1310 | 0.177 | 2.98 | 5.68 | 85.1 | 54.5 | 0.07 |  |  |  |  |  |  |  |  |  |  | 
13 | Y[Aib]QGTFTSDFS[Orn][αMeL]LDKK([AEEA-AEEA-γGlu-C18 diacid])AQ[Aib]AFIEYLLE[dA]GPSSGHPPPSGH-NH2 [Example 255] | 21.9 | 272 | 883 | 0.107 | 1.9 | 5.48 | 47.1 | 51.8 | 0.23 |  |  |  |  |  |  |  |  |  |  | 
14 | Y[Aib]QGT[αMePhe(2-F)]TSDYSILLDKIAQK([AEEA-γGlu-C20 diacid])AFIEYLLEGGPSSGEPPPSEG-NH2 [Example 293] |  |  |  |  |  |  |  |  |  | 54.6 | 11.9 | 0.994 | 295 | 0.0587 | 9.63 | 4.01 | 1740 |  |  | 
15 | [NMeY][Aib]QGT[αMeF]TSDYSSLLDKIAAKAFIEYLLEGGPSSGEPPPSEG-NH2 (not fully specified (residue 20)) [Example 297] |  |  |  |  |  |  |  |  |  | 33.5 | 60.2 | 2.96 |  | 0.626 |  | 3.26 |  | 1130 | 325 | 2320
16 | [NMeY][Aib]QGT[αMeF]TSDYSILLDKIAAKAFVQWLIAGGPSSGEPPPSEG-NH2 (not fully specified (residue 20)) [Example 300] |  |  |  |  |  |  |  |  |  | 40.3 | 15.7 | 1.05 |  | 0.0975 |  | 6.54 |  | 98 | 12.9 | 976
17 | B1 |  |  |  |  |  |  |  |  |  | 83.5 | 3.94 | 0.34 | 90 | 0.43 | 53.4 | 2.68 | 878 |  |  | 
18 | B2 |  |  |  |  |  |  |  |  |  | 35.3 | 27.7 | 2.16 | 554 | 0.318 | 54.1 | 1.07 | 518 |  |  | 
19 | B3 |  |  |  |  |  |  |  |  |  | 86.4 | 3.29 | 0.277 |  | 0.138 |  | 1.04 |  | 70.9 | 41.3 | 1570
